From publication PMC6154613, “Investigation of the Anti-Leishmania (Leishmania) infantum Activity of Some Natural Sesquiterpene Lactones” (Molecules : A Journal of Synthetic Chemistry and Natural …, 2017)

How the values were obtained:
[1] = tested on: L. (L.) infantum promastigotes; assay: Anti-promastigote activity, MTT viability assay; type: cell-based, Leishmania (Leishmania) infantum; settings: for IC50: Leishmania infantum, 48 h incubation, MTT, value (SD)
Protocol: (§1) L. (L.) infantum (MHOM/BR/1972/LD) promastigotes were maintained in M-199 medium supplemented with 10% heat-inactivated fetal bovine serum (FBS) (Gibco, Thermo Fisher Scientific, São Paulo, Brazil), 0.25% hemin (Sigma-Aldrich), and 5% human urine at 24 °C. Amastigotes were obtained from the spleen of previously infected hamsters by differential centrifugation. Macrophages were collected from the peritoneal cavity of BALB/c mice by washing with RPMI-1640 medium supplemented with 10% FBS, and were maintained at 37 °C in a 5% CO2-humidified incubator. Murine fibroblasts NCTC (clone L929 ATCC) were used to evaluate the cytotoxicity of the tested compounds. NCTC cells were maintained in M-199 medium supplemented with 10% FBS and 20 μg/mL gentamicin at 37 °C in a 5% CO2-humidified incubator.
Compounds were dissolved in DMSO and diluted in M-199 medium in 96-well microplates, with the highest concentration of 150 μM. Promastigotes of L. (L.) infantum in the late growth-phase were seeded at 1 × 10^6/well and incubated with the compounds for 48 h. The viability of cells was determined using the MTT assay. An internal control group was used with 0.5% DMSO (maximal concentration). Miltefosine was used as standard drug.
(§2) Data processing and statistical analyses was done with GraphPad Prism® 5.0 (GraphPad Software, Inc. La Jolla, CA, USA). For determination of antileishmanial activity and NCTC cytotoxicity, the IC50 and CC50 values were calculated after normalization using sigmoidal dose-response curves. The evaluation of statistical significance of multiple pairs was done with a Tukey's range test, which corrects for the increased probability of a type I error during multiple comparison.

[2] = Mammalian cytotoxicity, MTT assay; type: cell-based, murine; settings: mouse, NCTC murine fibroblasts, 48 h, MTT, value (SD); for CC50 at 48 h: NCTC clone L929 fibroblasts
Protocol: as §1
(§3) NCTC cells were seeded at 6 × 10^4 in 96-well microplates and incubated with the compounds for 48 h. An internal control group was used with 0.5% DMSO (maximal concentration). The quantification of viable cells was assessed by the MTT assay. The selectivity index (SI) was determined using the following equation: SI = CC50 in NCTC cells / IC50 against amastigotes.
as §2

[3] = tested on: L. (L.) infantum intracellular amastigotes; assay: Activity against intracellular amastigotes in peritoneal macrophages, Giemsa staining and light microscopy; type: cell-based, Leishmania (Leishmania) infantum; settings: for IC50: Leishmania infantum, Peritoneal macrophage, intracellular amastigotes in murine peritoneal macrophages, 120 h, highest concentration 100 μM, value (SD)
Protocol: as §1
Murine peritoneal macrophages were collected from the peritoneal cavity of BALB/c mice, and the macrophages were seeded at 1 × 10^5/well for 24 h in a 16-well slide. Amastigotes were prepared (as described previously), seeded at a ratio 1:10 (macrophages:amastigotes) and kept at 37 °C in a 5% CO2-humidified incubator for 24 h. Test compounds were incubated to the highest concentration of 100 μM with infected macrophages for 120 h. Miltefosine was used as a standard drug. Subsequently, the cells were fixed with methanol, stained with Giemsa (Merck KGaA, Darmstadt, Germany), and observed using a light microscope. The parasite burden was determined by the number of infected macrophages out of 400 cells.
as §2

[4] = tested on: L. (L.) infantum promastigotes; assay: Mitochondrial membrane potential, rhodamine 123, flow cytometry; type: cell-based, Leishmania (Leishmania) infantum; settings: 6 μM, 1 h, compared with untreated parasites
Protocol: The Δψm and ROS content of promastigotes treated with compound 1 were determined using the fluorescence probes rhodamine 123 and H2DCFDA (Molecular Probes Inc., Eugene, OR, USA), respectively, and further evaluated by flow cytometry. […] The parasites were incubated in HANKS’ balanced salts solution (HBSS; Sigma-Aldrich, Carlsbad, CA, USA), supplemented with 10 mM D-Glucose, at 26 °C for 1 h. Afterwards the parasites were washed and stained with rhodamine 123 (0.3 μg/mL) or H2DCFDA (5 μM) for 15 min under absence of light. The washed parasites were resuspended in PBS and the fluorescence was measured in a Flow Cytometer Attune Nxt (ThermoFisher Scientific, Waltham, MA, USA) using the forward scatter (FSC, relative cell size) and the side scatter detectors (SSC, cell granulometry or internal complexity), FL1-A (detecting fluorescence emission 530 ± 15 nm), and Attune Nxt software. As control, untreated promastigotes (not stained with Rd123 or H2DCFDA) served to monitor the basal fluorescence. […] Samples were tested in duplicate. Two independent assays were performed.

[5] = tested on: L. (L.) infantum promastigotes; assay: Ultrastructural analysis by transmission electron microscopy; type: cell-based, Leishmania (Leishmania) infantum; settings: 0.5-4 h incubation; 1 μM or 120 μM
Protocol: Ultrastructural studies were performed with promastigotes treated with compound 1 by TEM. L. (L.) infantum promastigotes in the late growth phase were washed and incubated with 120 μM of 1 (corresponding to the IC99 value obtained with 1 × 10^6 parasites/well) at 2 × 10^7/well in 200 μL M-199 medium. Compound incubation was performed for 0.5, 1, 2, 3, and 4 h under the previously described growth conditions. After centrifugation at 2800 rpm for 10 min, the parasites were fixed with 1 mL glutaraldehyde and the sample processing was performed according to Duarte et al.. The TEM imaging was performed on a JEOL 1011 transmission electron microscope (Peabody, MA, USA).

L. (L.) mexicana = tested on: L. (L.) mexicana; parameters: method as in PMID 18576826; settings: cited from earlier work
[6] = tested on: Murine fibroblasts NCTC (clone L929 ATCC); assay: Mammalian cytotoxicity, MTT assay; type: cell-based; settings: NCTC cells
Protocol: as §1, §3, §2

[7] = tested on: peritoneal macrophages of BALB/c mice; assay: Nitric oxide production in macrophages, Griess assay; type: cell-based, Mus musculus; settings: 3 μM, 24 h, similar levels as LPS
Protocol: The NO production of macrophages treated with 1 was performed using the Griess assay. Briefly, 1 × 10^5/well peritoneal macrophages of BALB/c mice were seeded overnight in a 96-well plate. Fresh medium containing compound 1 at 3 µM (corresponding to the CC25 value obtained with NCTC cells) or 5 µg/mL LPS (positive control) were added and incubated for 24 h at 37 °C. Afterwards the NO content of each of the cultures’ supernatant was analysed using the Griess assay. The samples’ NO content was determined by means of a standard curve prepared with NaNO2 at concentrations from 0 to 400 μM.

[8] = tested on: L. (L.) infantum promastigotes; assay: ROS production, H2DCFDA, flow cytometry; type: cell-based, Leishmania (Leishmania) infantum
Protocol: The Δψm and ROS content of promastigotes treated with compound 1 were determined using the fluorescence probes rhodamine 123 and H2DCFDA (Molecular Probes Inc., Eugene, OR, USA), respectively, and further evaluated by flow cytometry. Briefly, 2 × 10^6 promastigotes/well cultured until the late growth-phase were treated with […] of 1 (corresponding to the IC99 value obtained with 1 × 10^6 parasites/well). The parasites were incubated in HANKS’ balanced salts solution (HBSS; Sigma-Aldrich, Carlsbad, CA, USA), supplemented with 10 mM D-Glucose, at 26 °C for 1 h. Afterwards the parasites were washed and stained with rhodamine 123 (0.3 μg/mL) or H2DCFDA (5 μM) for 15 min under absence of light. The washed parasites were resuspended in PBS and the fluorescence was measured in a Flow Cytometer Attune Nxt (ThermoFisher Scientific, Waltham, MA, USA) using the forward scatter (FSC, relative cell size) and the side scatter detectors (SSC, cell granulometry or internal complexity), FL1-A (detecting fluorescence emission 530 ± 15 nm), and Attune Nxt software. As control, untreated promastigotes (not stained with Rd123 or H2DCFDA) served to monitor the basal fluorescence. […] Samples were tested in duplicate. Two independent assays were performed.

[9] = tested on: L. (L.) infantum promastigotes plasma membrane; assay: Plasma membrane permeability, SYTOX Green; type: cell-based, Leishmania (Leishmania) infantum; settings: 3 and 6 μM, 60 min, compared with untreated parasites
Protocol: Late-growth-phase (non-stationary) promastigotes were incubated with the probe SYTOX Green (Molecular Probes Inc., Eugene, OR, USA), as previously described. […] 1 was added at 3 and 6 μM to 1 × 10^6 cells/well, at 24 °C. The fluorescence was measured every 20 min (0–80 min). At the end of the assay (80 min), 0.1% Triton X-100 was added to all wells to obtain the maximum permeabilization of parasites. Fluorescence intensity was determined using a fluorimetric microplate reader (FilterMax F5 Multi-Mode Microplate Reader-Molecular Devices, Sunnyvale, CA, USA) with excitation and emission wavelengths of 485 and 520 nm, respectively. The following internal controls were used during the evaluation: (i) the background fluorescence of the compound at the respective wavelengths; (ii) the possible interference of DMSO; (iii) untreated promastigotes; and (iv) medium without any cells. Samples were tested in duplicate.

[10] = tested on: axenic amastigotes (extracellular) of L. (L.) amazonensis; parameters: method as in PMID 24913205; settings: cited from earlier work

Row | Structure (SMILES) | IC50 [1] | CC50 at 48 h [2] | CC50 [2] | IC50 [3] | other results
1 | C=C1C(=O)O[C@@H]2C[C@@]3(C)CCC[C@H](C)C3=C[C@H]12 [Alantolactone (5), Alantolactone] | 9.94 µM | 11 µM | – | – | –
2 | C=C1C(=O)O[C@@H]2[C@H]3C(C)=CC[C@@]34O[C@@]4(C)CC[C@@H]12 [Arglabin (3), Arglabin] | 30 µM | – | 39.4 µM | 7.33 µM | –
3 | C=C1C(=O)O[C@@H]2/C=C(/CO)C3=CC(=O)[C@@](C)(C[C@@H](OC(=O)/C(C)=C/C)[C@@H]12)O3 [Budlein A (7), Budlein A] | 28 µM | – | 9.05 µM | – | –
4 | C=C(CO)C(=O)O[C@H]1CC(=C)[C@@H]2C[C@H](O)C(=C)[C@@H]2[C@H]2OC(=O)C(=C)[C@@H]21 [Cynaropicrin (4), Cynaropicrin] | 30.6 µM | 33.5 µM | – | 6.88 µM | –
5 | C=C1C(=O)OC2CC(C)C3C=CC(=O)C3(C)C(OC(C)=O)C12 (centres unmarked) [Helenalin acetate (1), Helenalin acetate] | 3.53 µM | – | 8.12 µM | 1.15 µM | IC99 value ([1]; promastigotes, 1 × 10^6 parasites/well): 6 µM; decrease of Rd123 fluorescence (Δψm) [4]: 60%; ultrastructural alterations (TEM) [5]: intense cytoplasmatic vacuolization, formation of autophagosomes, swelling of the mitochondrion, and chromatin decondensation; alteration of the plasma membrane (L. (L.) mexicana; L. (L.) mexicana promastigotes, long-term treatment): no alteration of the plasma membrane; CC25 value [6]: 3 µM; production of NO [7]: significantly increased the production of NO; infection of macrophages (light microscopy) ([3]; 0.33 µM, Figure S1c): relatively high amastigote number; infection of macrophages (light microscopy) ([3]; 1 µM, Figure S1b): A large number of infected macrophages is visible; infection of macrophages (light microscopy) ([3]; 3 µM, Figure S1a): very few infected macrophages with each very few amastigotes; ROS production (H2DCFDA) ([8]; compound 1, 1 h of treatment): no alteration of ROS; SYTOX Green fluorescence (plasma membrane permeability) [9]: No significant increase of SYTOX Green fluorescence
6 | C=C1C(=O)O[C@H]2C[C@@H](C)[C@@H]3C=CC(=O)[C@@]3(C)[C@H](O)[C@H]12 [Mexicanin I (2), Mexicanin I] | 4.89 µM | – | 9.2 µM | 1.73 µM | activity against L. (L.) mexicana (L. (L.) mexicana): activity against L. (L.) mexicana at low concentrations
7 | CCCCCCCCCCCCCCCCOP(=O)([O-])OCC[N+](C)(C)C [Miltefosine, reference compound] | 16.7 µM | – | – | – | –
8 | C=C1C(=O)O[C@H]2[C@H]1CC/C(C)=C/CC[C@@]1(C)O[C@@H]21 [Parthenolide (6), Parthenolide] | 59.1 µM | 58.2 µM | – | 89.2 µM | effect on mitochondrial membrane potential [10]: mitochondrial depolarization
9 | C=C1C(=O)O[C@@H]2C[C@@H](C)[C@@H]3C=CC(=O)[C@@]3(C)[C@@H](O)[C@H]12 [helenalin, reference compound] | – | – | – | – | activity against L. (L.) mexicana (L. (L.) mexicana): activity against L. (L.) mexicana at low concentrations
10 | CC[C@H]1/C=C/C=C/C[C@@H](C)[C@H](O)[C@@](C)(O)C(=O)[C@@H](C)[C@H](O)[C@@H](C)C(=O)[C@@H](C)[C@H](O)[C@@H](C)/C=C/C(=O)O[C@@H]2[C@H](C)[C@H](CC1)O[C@]1(CC[C@H](C)[C@H](C[C@@H](C)O)O1)[C@H]2C [oligomycin, reference compound] | – | – | – | – | ROS production (H2DCFDA) ([8]; oligomycin 20 μM, positive control): increased the ROS production over time
